Data from patent US20230263752A1, “VETERINARY COMPOSITIONS FOR THE TREATMENT AND/OR PREVENTION OF PROTOZOAN DISEASES AND METHODS OF PREPARATION THEREOF” (ADIFEED SP. Z O. O., priority 2020, published 2023).
“And” between values parts separate entries of the source, which are not always exact repeats. Identical values can stand only once.

Columns and labels:
[1] = system: Trypanosoma cruzi and different Leishmania species; details: cited from earlier work
Gregarina blattarum = assay: in vitro protozoicidal test on gregarines isolated from cockroaches, in Ringer's solution; format: cell-based; details: for LD100: 100% mortality within 3 minutes
Source text: For in vitro tests of antiprotozoal activity of the composition five reference organisms representing taxonomic groups to which pathogenic protozoa belong were selected, i.e: • Amoeba proteus—Chaos diffluens—a protozoan of the order Euamoebida, belonging to fifth supergroup of the Amoebozoa, living in waters. • Paramecium caudatum—a slipper animalcule representing the Ciliata orachs, living in waters. • Gregarina blattarum—gregarine isolated from cockroaches, representing the phylum Apicomplexa, living in the digestive tracts or body cavities of invertebrates. • Euglena gracilis—a protozoan living in water, representing the flagellates—Mastigophora, family Euglenaceae. • Trichomonas hominis—a protozoan living in the human colon, representing the Trichomonadidae.
The gregarines were isolated from the cockroaches and, after being placed on a watch slide, were treated with the products at different concentrations in Ringer's solution. Each sample contained ten individuals.
The compositions, negative controls, and positive controls were dissolved in an aqueous solution of polysorbate 80 (0.05%) before application to a watch slide.
After this time, the reaction product was filtered through filter paper. […] Compositions I and II were then analysed for their antiprotozoal properties. […]
The tested preparations were dissolved in an aqueous solution of polysorbate 80 (0.05%) before being applied to a watch glass. […] Observation under a fluorescence microscope with phase contrast was carried out.

Amoeba proteus = assay: in vitro protozoicidal test on watch glass, LD50/LD100; format: cell-based
Trichomonas hominis = assay: as above; format: cell-based
Trypanosoma cruzi = details: read-out: inhibitory effect on 50% of the population (IC50); cited from earlier work
[2] = system: Trypanosoma cruzi and Leishmania chagasi; details: cited from earlier work
[3] = 100% mortality within 3 minutes

Question: For O=C(Cn1ccnc1[N+](=O)[O-])NCc1ccccc1 [benznidazole], which “values obtained (in vitro antiprotozoal activity)” value [1] is on record?
Answer: 45.02 µg/mL

Question: For “copper carbonate [Copper carbonate solution]”, which LD100 (Gregarina blattarum) is on record?
Answer: 0.37%

Question: For Cc1ncc([N+](=O)[O-])n1CCO [M, metronidazole], which LD50 (Gregarina blattarum; 50% mortality within 3 minutes) is on record?
Answer: 0.13% and 0.3%

Question: What about the LD100 (Gregarina blattarum) of the same compound?
Answer: 0.3%

Question: What about the LD50 (Amoeba proteus; 50% mortality within 3 minutes) of the same compound?
Answer: 0.3%

Question: And the LD100 (Amoeba proteus; [3])?
Answer: 0.5%

Question: What about the LD50 (Trichomonas hominis; 50% mortality within 3 minutes) of the same compound?
Answer: 0.05% and 0.08%

Question: What about the LD100 (Trichomonas hominis; [3]) of the same compound?
Answer: 0.1% and 0.15%

Question: For CC1CS(=O)(=O)CCN1/N=C/c1ccc([N+](=O)[O-])o1 (stereo not shown) [Nifurtimox], which IC50 (Trypanosoma cruzi) is on record?
Answer: 6 µM

Question: And the IC50 [2]?
Answer: 0.3 to 0.4 µg/mL
